Laboratory results from PubChem BioAssay (NCI).
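Grown in 96-well plates, cells were treated for 48 hours with each compound at five concentrations. Insufficient inhibition: endpoint recorded as highest concentration tested. The concentration for 50% growth inhibition is given as GI50. TGI marks complete inhibition of growth.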

Columns and labels:
Experiment in all cases: NCI tumour cell line growth inhibition, 48 h
786-0 renal = test system: 786-0 renal
A498 renal = test system: A498 renal
A549 NSCLC = test system: A549 NSCLC
ACHN renal = test system: ACHN renal
BT-549 breast = test system: BT-549 breast
CAKI-1 renal = test system: CAKI-1 renal
CCRF-CEM leukemia = test system: CCRF-CEM leukemia
COLO 205 colon = test system: COLO 205 colon
DU-145 prostate = test system: DU-145 prostate
EKVX NSCLC = test system: EKVX NSCLC
HCC-2998 colon = test system: HCC-2998 colon
HCT-15 colon = test system: HCT-15 colon
HL-60(TB) leukemia = test system: HL-60(TB) leukemia
HOP-62 NSCLC = test system: HOP-62 NSCLC
HOP-92 NSCLC = test system: HOP-92 NSCLC
HS 578T breast = test system: HS 578T breast
HT29 colon = test system: HT29 colon
IGROV1 ovarian = test system: IGROV1 ovarian
K-562 leukemia = test system: K-562 leukemia
KM12 colon = test system: KM12 colon
LOX IMVI melanoma = test system: LOX IMVI melanoma
M14 melanoma = test system: M14 melanoma
MALME-3M melanoma = test system: MALME-3M melanoma
MCF7 breast = test system: MCF7 breast
MDA-MB-231 breast = test system: MDA-MB-231 breast
MDA-MB-435 = test system: MDA-MB-435
MDA-MB-468 breast = test system: MDA-MB-468 breast
MOLT-4 leukemia = test system: MOLT-4 leukemia
NCI-H226 lung = test system: NCI-H226 lung
NCI-H23 lung = test system: NCI-H23 lung
NCI-H460 lung = test system: NCI-H460 lung
NCI-H522 lung = test system: NCI-H522 lung
NCI/ADR-RES ovarian = test system: NCI/ADR-RES ovarian
OVCAR-3 ovarian = test system: OVCAR-3 ovarian
OVCAR-4 ovarian = test system: OVCAR-4 ovarian
OVCAR-5 ovarian = test system: OVCAR-5 ovarian
OVCAR-8 ovarian = test system: OVCAR-8 ovarian
PC-3 prostate = test system: PC-3 prostate
RPMI-8226 leukemia = test system: RPMI-8226 leukemia
RXF 393 renal = test system: RXF 393 renal
SF-268 CNS = test system: SF-268 CNS
SF-295 CNS = test system: SF-295 CNS
SF-539 CNS = test system: SF-539 CNS
SK-MEL-28 melanoma = test system: SK-MEL-28 melanoma
SK-MEL-5 melanoma = test system: SK-MEL-5 melanoma
SK-OV-3 ovarian = test system: SK-OV-3 ovarian
SN12C renal = test system: SN12C renal
SNB-19 CNS = test system: SNB-19 CNS
SR leukemia = test system: SR leukemia
SW-620 colon = test system: SW-620 colon
T-47D breast = test system: T-47D breast
TK-10 renal = test system: TK-10 renal
U251 CNS = test system: U251 CNS
UACC-257 melanoma = test system: UACC-257 melanoma
UACC-62 melanoma = test system: UACC-62 melanoma
UO-31 renal = test system: UO-31 renal

Compound `COc1ccc2nc(Cl)c(-c3cc(-c4ccccc4)nc(N)n3)cc2c1` has a GI50 (786-0 renal) of 1.45 µM, a TGI (786-0 renal) of 4.36 µM and a GI50 (A498 renal) of 25.9 µM. The TGI (A498 renal) was greater than 100 µM, the GI50 (A549 NSCLC) was 21.5 µM and the TGI (A549 NSCLC) was greater than 100 µM. The GI50 (ACHN renal) was 10.6 µM, the TGI (ACHN renal) was 30.8 µM and the GI50 (BT-549 breast) was 1.54 µM. For the same compound, the TGI (BT-549 breast) was 3.32 µM, the GI50 (CAKI-1 renal) was 20.5 µM and the TGI (CAKI-1 renal) was 71.4 µM. The GI50 (CCRF-CEM leukemia) was 2.58 µM, the TGI (CCRF-CEM leukemia) was greater than 100 µM and the GI50 (COLO 205 colon) was 10.9 µM. For the same compound, the TGI (COLO 205 colon) was 25.8 µM, the GI50 (DU-145 prostate) was 4.03 µM and the TGI (DU-145 prostate) was greater than 100 µM. The GI50 (EKVX NSCLC) was 16.9 µM, the TGI (EKVX NSCLC) was 72.2 µM and the GI50 (HCC-2998 colon) was 10.6 µM. For the same compound, the TGI (HCC-2998 colon) was 22.5 µM, the GI50 (HCT-15 colon) was 2.67 µM and the TGI (HCT-15 colon) was 8.1 µM. The GI50 (HL-60(TB) leukemia) was 1.55 µM, the TGI (HL-60(TB) leukemia) was greater than 100 µM and the GI50 (HOP-62 NSCLC) was 7.47 µM. It also gave a TGI (HOP-62 NSCLC) of 31.1 µM, a GI50 (HOP-92 NSCLC) of 11.3 µM and a TGI (HOP-92 NSCLC) of 62 µM. For the same compound, the GI50 (HS 578T breast) was 20.8 µM, the TGI (HS 578T breast) was greater than 100 µM and the GI50 (HT29 colon) was 5.11 µM. It also gave a TGI (HT29 colon) of 18.7 µM, a GI50 (IGROV1 ovarian) of 8.04 µM and a TGI (IGROV1 ovarian) of 23.7 µM. It also gave a GI50 (K-562 leukemia) of 3.21 µM, a TGI (K-562 leukemia) greater than 100 µM and a GI50 (KM12 colon) of 3.38 µM. The TGI (KM12 colon) was 12.6 µM, the GI50 (LOX IMVI melanoma) was 1.92 µM and the TGI (LOX IMVI melanoma) was 4.23 µM. The GI50 (M14 melanoma) was 4.33 µM, the TGI (M14 melanoma) was 25.9 µM and the GI50 (MALME-3M melanoma) was 12.2 µM. It also gave a TGI (MALME-3M melanoma) of 27.4 µM, a GI50 (MCF7 breast) of 2.82 µM and a TGI (MCF7 breast) of 12.8 µM. It also gave a GI50 (MDA-MB-231 breast) of 6.97 µM, a TGI (MDA-MB-231 breast) of 38.8 µM and a GI50 (MDA-MB-435) of 12.8 µM. For the same compound, the TGI (MDA-MB-435) was 33 µM, the GI50 (MDA-MB-468 breast) was 4 µM and the TGI (MDA-MB-468 breast) was 16.5 µM. For the same compound, the GI50 (MOLT-4 leukemia) was 1.74 µM, the TGI (MOLT-4 leukemia) was greater than 100 µM and the GI50 (NCI-H226 lung) was 7.23 µM. For the same compound, the TGI (NCI-H226 lung) was 53.9 µM, the GI50 (NCI-H23 lung) was 6.53 µM and the TGI (NCI-H23 lung) was 23.4 µM. For the same compound, the GI50 (NCI-H460 lung) was 3.58 µM, the TGI (NCI-H460 lung) was 13.5 µM and the GI50 (NCI-H522 lung) was 11.7 µM. It also gave a TGI (NCI-H522 lung) of 27.4 µM, a GI50 (NCI/ADR-RES ovarian) of 4.77 µM and a TGI (NCI/ADR-RES ovarian) of 36 µM. For the same compound, the GI50 (OVCAR-3 ovarian) was 3.71 µM, the TGI (OVCAR-3 ovarian) was 14.5 µM and the GI50 (OVCAR-4 ovarian) was 22.3 µM. The TGI (OVCAR-4 ovarian) was greater than 100 µM, the GI50 (OVCAR-5 ovarian) was 6.61 µM and the TGI (OVCAR-5 ovarian) was 29.1 µM. For the same compound, the GI50 (OVCAR-8 ovarian) was 3.37 µM, the TGI (OVCAR-8 ovarian) was 18.5 µM and the GI50 (PC-3 prostate) was 5.79 µM. It also gave a TGI (PC-3 prostate) greater than 100 µM, a GI50 (RPMI-8226 leukemia) of 3.31 µM and a TGI (RPMI-8226 leukemia) greater than 100 µM. It also gave a GI50 (RXF 393 renal) of 3.51 µM, a TGI (RXF 393 renal) of 13.7 µM and a GI50 (SF-268 CNS) of 28.1 µM. The TGI (SF-268 CNS) was greater than 100 µM, the GI50 (SF-295 CNS) was 11.4 µM and the TGI (SF-295 CNS) was 36.1 µM. It also gave a GI50 (SF-539 CNS) of 1.89 µM, a TGI (SF-539 CNS) of 3.92 µM and a GI50 (SK-MEL-28 melanoma) of 14.6 µM. For the same compound, the TGI (SK-MEL-28 melanoma) was 33.8 µM, the GI50 (SK-MEL-5 melanoma) was 12.2 µM and the TGI (SK-MEL-5 melanoma) was 24.6 µM. It also gave a GI50 (SK-OV-3 ovarian) of 39.7 µM, a TGI (SK-OV-3 ovarian) greater than 100 µM and a GI50 (SN12C renal) of 4.71 µM. It also gave a TGI (SN12C renal) of 19.2 µM, a GI50 (SNB-19 CNS) of 7.62 µM and a TGI (SNB-19 CNS) of 23.5 µM. It also gave a GI50 (SR leukemia) of 0.605 µM, a TGI (SR leukemia) greater than 100 µM and a GI50 (SW-620 colon) of 2.8 µM. It also gave a TGI (SW-620 colon) of 8.76 µM, a GI50 (T-47D breast) of 7.94 µM and a TGI (T-47D breast) greater than 100 µM. For the same compound, the GI50 (TK-10 renal) was 22.1 µM, the TGI (TK-10 renal) was 90.2 µM and the GI50 (U251 CNS) was 3.26 µM. It also gave a TGI (U251 CNS) of 13.2 µM, a GI50 (UACC-257 melanoma) of 19 µM and a TGI (UACC-257 melanoma) of 66.5 µM. It also gave a GI50 (UACC-62 melanoma) of 11 µM, a TGI (UACC-62 melanoma) of 24 µM and a GI50 (UO-31 renal) of 4.3 µM. The TGI (UO-31 renal) was 17.6 µM.
